Where a name gives a salt, the structure may show the parent alone.
What was measured:
[1] = target: T1, PDE V (cGMP-specific PDE) (Canis lupus familiaris, UniProt O77746); experiment: inhibitory activity on PDE V derived from canine tracheal smooth muscle; format: biochemical; conditions: 1 nM compound; substrate 1.0 μM [3H]cGMP; pH 7.2; 30° C., 10 to 30 minutes; inhibitor dissolved in 1.7% DMSO; read-out: PDE V Inhibitory activity, inhibition rate (%)
T1 construct: PDE V (cGMP-specific PDE) was purified from canine tracheal smooth muscle; from tissue; host or cells: canine tracheal smooth muscle
Experimental: The inhibitory activity on PDE derived from canine tracheal smooth muscle
According to the method of Torphy et al. [Mol. Pharmacol., 37, 206 (1990)], PDE V (cGMP-specific PDE) was purified from canine tracheal smooth muscle.
The activity was measured based on the method of Kincaid et al. [J. D. Corbin et al., Methods Enzymol., 159, 457 (1988), Academic Press, New York]. The measurement was carried out using, as a substrate, 1.0 μM [^3 H]cGMP, and the reaction was carried out in a buffer having the following composition:
50 mM N,N-bis(2-hydroxyethyl)-2-aminoethanesulfonic acid (pH 7.2), 1 mM MgCl2, 0.1 mg/ml soybean trypsin inhibitor
The reaction was started by addition of an enzyme and stopped by addition of hydrochloric acid after 10 to 30 minutes at 30° C. Thereafter, sodium hydroxide was added for neutralization and 5'-GMP was converted into guanosine using 5'-nucleotidase. The reaction solution was subjected to DEAE-Sephadex A-25 column. [^3 H]Guanosine was eluted with distilled water and the radioactivity was measured with a liquid scintillation counter. The inhibitor was dissolved in 1.7% DMSO.

[2] = system: rats; experiment: hypotensive effect in anesthetized rats (duodenal administration); format: in vivo, male Sprague-Dawley rat; conditions: rat, i.d., within 30 minutes, average of N = 2
Experimental: The hypotensive effect in rats
After a male Sprague-Dawley rat anesthetized with urethane was fixed in the supine position, a cannula was inserted into trachea and the rat was artificially ventilated under the conditions of a tidal volume of […] and 60 breathes/min. The carotid artery and the duodenum were cannulated for measuring blood pressure and administering a drug, respectively. The drug was dissolved in distilled water and administered duodenally using the above cannula. Mean blood pressure (mBP) until 30 minutes after the drug-administration was measured and the maximum loweing rate (%) from the value before the drug-administration (100%) was determined. The average value of 2 samples was calculated in each dose. No change of mBP was observed during 30 minutes in case of administering distilled water.

| SMILES | inhibition at 0.001 µM [1] | Hypotensive activity, Maximum lowering rate (%) of mean blood pressure (mBP) ([2]; 0.1 mg/kg) | Hypotensive activity, Maximum lowering rate (%) of mean blood pressure (mBP) ([2]; 1 mg/kg) | Hypotensive activity, Maximum lowering rate (%) of mean blood pressure (mBP) ([2]; 10 mg/kg) |
| --- | --- | --- | --- | --- |
| CCn1c(=S)[nH]c2cc3c(NCc4ccccc4CN4CC=CCC4)ncnc3cc21 [Compound 71, 3-Ethyl-8-[2-(1,2,3,6-tetrahydropyridin-1-ylmethyl)benzylamino]-2,3-dihydro-1H-imidazo[4,5-g]quinazoline-2-thione.2 hydrochloride] | 97% | 16.1% | 22.8% | 23.2% |
| CCn1c(=S)[nH]c2cc3c(NCc4cccc(OCCCN5CCOCC5)c4)ncnc3cc21 [Compound 79, 3-Ethyl-8-[3-(3-morpholinopropoxy)benzylamino]-2,3-dihydro-1H-imidazo[4,5-g]quinazoline-2-thione.2 hydrochloride] | 95% | – | – | – |
| CCOC(=O)C1CCN(Cc2ccccc2CNc2ncnc3cc4c(cc23)[nH]c(=S)n4CC)CC1 [Compound 75, 3-Ethyl-8-{2-[4-(ethoxycarbonyl)piperidin-1-ylmethyl]benzylamino}-2,3-dihydro-1H-imidazo[4,5-g]quinazoline-2-thione.2 hydrochloride] | 92% | – | – | – |
| CCn1c(=S)[nH]c2cc3c(NCc4ccc(CN5CCCCC5)cc4)ncnc3cc21 [Compound 15, 3-Ethyl-8-[4-(piperidinomethyl)benzylamino]-2,3-dihydro-1H-imidazo[4,5-g]quinazoline-2-thione.2 hydrochloride] | 63% | – | – | – |
| CCOC(=O)C1CCN(Cc2ccccc2CNc2ncnc3cc4c(cc23)[nH]c(=O)n4CC)CC1 [Compound 76, 3-Ethyl-8-{2-[4-(ethoxycarbonyl)piperidin-1-ylmethyl]benzylamino}-2,3-dihydro-1H-imidazo[4,5-g]quinazolin-2-one.2 hydrochloride] | 88% | – | – | – |
| CCN(CC)CCCOc1cccc(CNc2ncnc3cc4c(cc23)[nH]c(=S)n4CC)c1 [Compound 80, 8-{3-[3-(Diethylamino)propoxy]benzylamino}-3-ethyl-2,3-dihydro-1H-imidazo[4,5-g]quinazoline-2-thione.2 hydrochloride] | 92% | – | – | – |
| CCn1c(=O)[nH]c2cc3c(NCc4ccccc4CN4CCOCC4)ncnc3cc21 [Compound 1, 3-Ethyl-8-[2-(morpholinomethyl)benzylamino]-2,3-dihydro-1H-imidazo[4,5-g]quinazolin-2-one.2 hydrochloride] | 74% | – | – | – |

Now from value to compound, other results behind:

| inhibition at 0.001 µM [1] | SMILES | Hypotensive activity, Maximum lowering rate (%) of mean blood pressure (mBP) ([2]; 0.1 mg/kg) | Hypotensive activity, Maximum lowering rate (%) of mean blood pressure (mBP) ([2]; 1 mg/kg) | Hypotensive activity, Maximum lowering rate (%) of mean blood pressure (mBP) ([2]; 10 mg/kg) |
| --- | --- | --- | --- | --- |
| 29% | CCn1c(=O)[nH]c2cc3c(NCc4ccccc4OCCN4CCOCC4)ncnc3cc21 [Compound 21, 3-Ethyl-8-[2-(2-morpholinoethoxy)benzylamino]-2,3-dihydro-1H-imidazo[4,5-g]quinazolin-2-one.2 hydrochloride] | – | – | – |
| 79% | CCn1c(=S)[nH]c2cc3c(NCc4ccccc4OCCN4CCN(C)CC4)ncnc3cc21 [Compound 32, 3-Ethyl-8-{2-[2-(4-methylpiperazin-1-yl)ethoxy]benzylamino}-2,3-dihydro-1H-imidazo[4,5-g]quinazoline-2-thione.3 hydrochloride] | – | – | – |
| 97% | CCn1c(=S)[nH]c2cc3c(NCc4ccccc4CN4CCOCC4)ncnc3cc21 [Compound 4, 3-Ethyl-8-[2-(morpholinomethyl)benzylamino]-2,3-dihydro-1H-imidazo[4,5-g]quinazoline-2-thione.2 hydrochloride] | 9.0% | 21.5% | 25.1% |
| 89% | CCn1c(=S)[nH]c2cc3c(NCc4ccc(OCCN5CCOCC5)cc4)ncnc3cc21 [Compound 42, 3-Ethyl-8-[4-(2-morpholinoethoxy)benzylamino]-2,3-dihydro-1H-imidazo[4,5-g]quinazoline-2-thione.2 hydrochloride] | – | – | – |
| 91% | CCn1c(=S)[nH]c2cc3c(NCc4ccccc4OCCN4CCOCC4)ncnc3cc21 [Compound 29, 3-Ethyl-8-[2-(2-morpholinoethoxy)benzylamino]-2,3-dihydro-1H-imidazo[4,5-g]quinazoline-2-thione.2 hydrochloride] | – | – | – |

Reference: patent US5698560A, “Imidazoquinazoline derivatives” (Kyowa Hakko Kogyo Co., Ltd., priority 1995, dated 1997)
